System: LG0703-F498-PDC complex spheroid growth
Experiment: Anticancer human tumor LG0703-F498-PDC patient-derived lung adenocarcinoma cell line growth inhibition [AhR]
Details: for IC50: curve of first compound; for viability, T/C: stronger effect = lower value
How it was run: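 Complex tumor spheroids co-cultured with HUVEC and human MSC stroma; AhR antagonists tested in combination with standard-of-care and investigational agents. Top concentration at or near clinical Cmax (else 10 microM), half-log dilutions; growth expressed as percent test/control.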

[1] = second compound 0.1 µM, first compound 0.0316 µM
[2] = second compound 0.1 µM, first compound 0.1 µM
[3] = second compound 0.1 µM, first compound 0.316 µM
[4] = second compound 0.1 µM, first compound 1 µM
[5] = second compound 0.1 µM, first compound 3.16 µM
[6] = second compound 0.1 µM, first compound 10 µM
[7] = second compound 0.316 µM, first compound 0.0316 µM
[8] = second compound 0.316 µM, first compound 0.1 µM
[9] = second compound 0.316 µM, first compound 0.316 µM
[10] = second compound 0.316 µM, first compound 1 µM
[11] = second compound 0.316 µM, first compound 3.16 µM
[12] = second compound 0.316 µM, first compound 10 µM
[13] = second compound 1 µM, first compound 0.0316 µM
[14] = second compound 1 µM, first compound 0.1 µM
[15] = second compound 1 µM, first compound 0.316 µM
[16] = second compound 1 µM, first compound 1 µM
[17] = second compound 1 µM, first compound 3.16 µM
[18] = second compound 1 µM, first compound 10 µM
[19] = second compound 3.16 µM, first compound 0.0316 µM
[20] = second compound 3.16 µM, first compound 0.1 µM
[21] = second compound 3.16 µM, first compound 0.316 µM
[22] = second compound 3.16 µM, first compound 1 µM
[23] = second compound 3.16 µM, first compound 3.16 µM
[24] = second compound 3.16 µM, first compound 10 µM
[25] = second compound 10 µM, first compound 0.0316 µM
[26] = second compound 10 µM, first compound 0.1 µM
[27] = second compound 10 µM, first compound 0.316 µM
[28] = second compound 10 µM, first compound 1 µM
[29] = second compound 10 µM, first compound 3.16 µM
[30] = second compound 10 µM, first compound 10 µM
[31] = second compound 0.1 µM, first compound 0.00316 µM
[32] = second compound 0.1 µM, first compound 0.01 µM
[33] = second compound 0.316 µM, first compound 0.00316 µM
[34] = second compound 0.316 µM, first compound 0.01 µM
[35] = second compound 1 µM, first compound 0.00316 µM
[36] = second compound 1 µM, first compound 0.01 µM
[37] = second compound 3.16 µM, first compound 0.00316 µM
[38] = second compound 3.16 µM, first compound 0.01 µM
[39] = second compound 10 µM, first compound 0.00316 µM
[40] = second compound 10 µM, first compound 0.01 µM
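Also: luminescence taken as a proxy for viable cell amount.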
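For viability, T/C in this document: percent of DMSO vehicle control where 100% means growth equal to vehicle.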

SMILES	IC50 (second compound 0.1 µM) [nM]	IC50 (second compound 0.316 µM) [nM]	IC50 (second compound 1 µM) [nM]	IC50 (second compound 3.16 µM) [nM]	IC50 (second compound 10 µM) [nM]	viability, T/C [1] [%]	viability, T/C [2] [%]	viability, T/C [3] [%]	viability, T/C [4] [%]	viability, T/C [7] [%]	viability, T/C [8] [%]	viability, T/C [9] [%]	viability, T/C [10] [%]	viability, T/C [13] [%]	viability, T/C [14] [%]	viability, T/C [15] [%]	viability, T/C [16] [%]	viability, T/C [19] [%]	viability, T/C [20] [%]	viability, T/C [21] [%]	other results
CC(C)c1c(-c2ccccc2)nc2c(C#N)c[nH]n2c1=O + Cc1ccccc1N=Nc1ccc(NC(=O)c2ccnn2C)c(C)c1	> 10000	> 10000	> 10000	> 10000	> 10000	95.3	88.1	94.9	98.5	97.4	85.6	85.5	78.8	88.1	90.4	94.7	89.5	78	79	84.5	viability, T/C [5]: 112%; viability, T/C [6]: 102%; viability, T/C [11]: 95.9%; viability, T/C [12]: 92.1%; viability, T/C [17]: 87.6%; viability, T/C [18]: 84.1%; viability, T/C [22]: 77.6%; viability, T/C [23]: 81.5%; viability, T/C [24]: 86.8%; viability, T/C [25]: 86.3%; viability, T/C [26]: 75.6%; viability, T/C [27]: 67.9%; viability, T/C [28]: 82.8%; viability, T/C [29]: 81.7%; viability, T/C [30]: 79.3%
CC1COCCN1c1cc(-c2ccnn2C)c2ccnc(-c3ccn[nH]3)c2n1 (stereo not given) + Cc1ccccc1N=Nc1ccc(NC(=O)c2ccnn2C)c(C)c1	514	678	306	406	592	82.4	72	56.3	41.5	90.6	73.1	58.4	45.6	91.6	73.6	50	38.4	69.7	78	49.3	viability, T/C [31]: 88.3%; viability, T/C [32]: 88.5%; viability, T/C [33]: 98%; viability, T/C [34]: 110%; viability, T/C [35]: 94.4%; viability, T/C [36]: 79.8%; viability, T/C [37]: 92.8%; viability, T/C [38]: 79.7%; viability, T/C [22]: 37%; viability, T/C [39]: 86.6%; viability, T/C [40]: 81.7%; viability, T/C [25]: 97.2%; viability, T/C [26]: 72.9%; viability, T/C [27]: 59.8%; viability, T/C [28]: 42.8%
COc1ccc([C@@H](O)c2cc(-c3ncnc4cc(N5CCOCC5)ccc34)c(F)cc2Cl)nn1 + Cc1ccccc1N=Nc1ccc(NC(=O)c2ccnn2C)c(C)c1	4590	2870	3920	2550	1900	93.9	93.8	88.3	75.7	83.3	101	91.1	75	87.3	99.2	86	79	89.8	83.9	78	viability, T/C [5]: 61.2%; viability, T/C [6]: 29%; viability, T/C [11]: 48.5%; viability, T/C [12]: 28.1%; viability, T/C [17]: 55%; viability, T/C [18]: 28.5%; viability, T/C [22]: 68.1%; viability, T/C [23]: 45.2%; viability, T/C [24]: 23.8%; viability, T/C [25]: 75.5%; viability, T/C [26]: 93.6%; viability, T/C [27]: 80.8%; viability, T/C [28]: 57.9%; viability, T/C [29]: 42.5%; viability, T/C [30]: 15.6%
COc1cc(C2c3cc4c(cc3C(OC3OC5COC(C)OC5C(O)C3O)C3COC(=O)C23)OCO4)cc(OC)c1O (stereo not given) + Cc1cncc(-c2nc(NCCc3c[nH]c4ccccc34)c3ncn(C(C)C)c3n2)c1	> 10000	> 10000	> 10000	5510	< 31.6	105	96.7	102	93.8	112	110	96.8	85.4	89.7	126	115	93.3	60.3	64.1	62.8	viability, T/C [5]: 84.6%; viability, T/C [6]: 63.4%; viability, T/C [11]: 77.9%; viability, T/C [12]: 71.5%; viability, T/C [17]: 72.2%; viability, T/C [18]: 64.5%; viability, T/C [22]: 54.3%; viability, T/C [23]: 51.6%; viability, T/C [24]: 47.9%; viability, T/C [25]: 1.19%; viability, T/C [26]: 1.35%; viability, T/C [27]: 1.7%; viability, T/C [28]: 1.47%; viability, T/C [29]: 1.3%; viability, T/C [30]: 2.49%
COc1cccc2c1C(=O)c1c(O)c3c(c(O)c1C2=O)CC(O)(C(=O)CO)CC3OC1CC(N)C(O)C(C)O1 (stereo not given) + Cc1cncc(-c2nc(NCCc3c[nH]c4ccccc34)c3ncn(C(C)C)c3n2)c1	571	454	394	< 31.6	< 31.6	76.6	74.6	64	36.8	79	77.8	58.3	29.8	84.2	79.9	53.7	27.1	41.6	44.3	39.5	viability, T/C [5]: 5.61%; viability, T/C [6]: 0.77%; viability, T/C [11]: 3.48%; viability, T/C [12]: 0.76%; viability, T/C [17]: 1.11%; viability, T/C [18]: 0.75%; viability, T/C [22]: 15.8%; viability, T/C [23]: 0.78%; viability, T/C [24]: 0.47%; viability, T/C [25]: 2.11%; viability, T/C [26]: 2.97%; viability, T/C [27]: 4.27%; viability, T/C [28]: 0.39%; viability, T/C [29]: 0.31%; viability, T/C [30]: 0.58%
Nc1ncn(C2CC(O)C(CO)O2)c(=O)n1 (stereo not given) + Cc1cncc(-c2nc(NCCc3c[nH]c4ccccc34)c3ncn(C(C)C)c3n2)c1	> 1000	> 1000	> 1000	> 1000	< 3.16	94.8	84.4	79.9	86.4	88	86.8	81.9	79.9	98.7	89.3	89.3	87.2	58.5	64.3	55.1	viability, T/C [31]: 85.7%; viability, T/C [32]: 98%; viability, T/C [33]: 109%; viability, T/C [34]: 102%; viability, T/C [35]: 106%; viability, T/C [36]: 116%; viability, T/C [37]: 56%; viability, T/C [38]: 59.8%; viability, T/C [22]: 60%; viability, T/C [39]: 1.37%; viability, T/C [40]: 1.38%; viability, T/C [25]: 1.23%; viability, T/C [26]: 1.12%; viability, T/C [27]: 1.02%; viability, T/C [28]: 1.63%

Source: PubChem BioAssay AID1919013 (Molecular Pharmacology Branch, DTP, NCI, 2023)
